The nature of the series: Solubility of the salts (saturated solution, filtering, HPLC determination of homoeriodictyol content). The series is classed as physicochemical. The protocol:
The solubility of the homoeriodictyol sodium salt and the salts produced in Example 1 and Example 2 is determined by the production of a saturated solution, filtering of this and then HPLC determination of the homoeriodictyol content.

Experimental findings from US9198451B2, “Aroma composition to reduce or suppress undesirable bitter and astringent taste impressions of sweeteners” (SYMRISE AG, priority 2008, dated 2015) are described below.

Broadly, the solubility is the concentration that dissolves in the medium under given conditions.

Structures can show the parent of a compound that is named as a salt.

For `COc1cc([C@@H]2CC(=O)c3c(O)cc(O)cc3O2)ccc1O` [Example 1, homoeriodictyol potassium salt], the “solubility compared with pure homoeriodictyol sodium salt” value is “better solubility”. Besides, the “Solubility in water, containing 1.5 g/l citric acid” value (water containing 1.5 g/l citric acid, saturated solution, filtered, HPLC, potassium salt) was found to be 5100 µg/mL. Moreover, for the setting “saturated solution, filtered, HPLC, potassium salt”, the Solubility in water was found to be 7000 µg/mL.

For `COc1cc([C@@H]2CC(=O)c3c(O)cc(O)cc3O2)ccc1O` [Homoeriodictyol sodium salt, reference compound], the solubility (water containing 1.5 g/l citric acid, aqueous buffer, thermodynamic from solid, saturated solution, filtered, HPLC) amounted to 3800 µg/mL. Further, where the note is “saturated solution, filtered, HPLC, sodium salt”, the Solubility in water is 2800 µg/mL.

Consider `COc1cc([C@@H]2CC(=O)c3c(O)cc(O)cc3O2)ccc1O` [Example 2, Homoeriodictyol Potassium Calcium Salt], for which, where the note is “water containing 1.5 g/l citric acid, saturated solution, filtered, HPLC, Potassium Calcium Salt”, the “Solubility in water, containing 1.5 g/l citric acid” value was 5400 µg/mL. The Solubility in water (saturated solution, filtered, HPLC, Potassium Calcium Salt) was found to be 10000 µg/mL.
